Test [1] addresses T1, human Cav3.2 T-type Ca2+ channel (Homo sapiens, UniProt O95180).
T1 construct: expressed in transfected cells; host or cells: KJMGER8 cells (Namalwa cell-derived cell line)
The test is described as follows: Inhibitory effect for intracellular calcium response via Cav3.2 T-type Ca2+ channels (FLIPR Calcium 3 Assay Kit). Format: cell-based. (In general: Calcium assays in cells follow changes in intracellular calcium, usually with a dye or a luminescent sensor.)

The subject of test [2] is morphine-induced pruritus mice. The test can be described thus: Inhibitory effect for pruritus in morphine-induced pruritus mice. In kind it is in vivo, male ddY mice. The settings on record: oral, dose of 30 mg/kg or less, 30 minutes before intrathecal morphine (1 nmol/5 μL); scratching counted for 30 minutes. As to the method: Morphine (1 nmol/5 μL, dissolved in physiological saline) or physiological saline was intrathecally administered between the fifth and sixth lumbar vertebrae of male ddY mice using a microsyringe fitted with a 30-gauge injection needle. Mice administered with only morphine were used as a control group, and mice administered with only physiological saline as a physiological saline-administered group.
After the morphine administration, the number of scratching behavior with the hind legs which observed immediately in the mice was measured for 30 minutes. Because mice show a rapid, continuous scratching behavior in each scratching behavior, a series of such behavior was counted as a single scratching behavior.
The test compounds were administered 30 minutes before the morphine administration. Each test compound was suspended in a 0.5% methylcellulose solution, and orally administered in 10 mL/kg volume.

The mark [3] stands for this setting: human Cav3.2-expressing KJMGER8 cells (Namalwa-derived), calcium response induced by 5 mmol/L CaCl2, normalised to 3 μmol/L mibefradil, read-out: IC50 for the human Cav3.2 T-type Ca2+ current.

Broadly, the IC50 is the concentration that gives 50% inhibition.

Where two headings read alike, the source gives them in different places.

T1 sequence (O95180 whole entry): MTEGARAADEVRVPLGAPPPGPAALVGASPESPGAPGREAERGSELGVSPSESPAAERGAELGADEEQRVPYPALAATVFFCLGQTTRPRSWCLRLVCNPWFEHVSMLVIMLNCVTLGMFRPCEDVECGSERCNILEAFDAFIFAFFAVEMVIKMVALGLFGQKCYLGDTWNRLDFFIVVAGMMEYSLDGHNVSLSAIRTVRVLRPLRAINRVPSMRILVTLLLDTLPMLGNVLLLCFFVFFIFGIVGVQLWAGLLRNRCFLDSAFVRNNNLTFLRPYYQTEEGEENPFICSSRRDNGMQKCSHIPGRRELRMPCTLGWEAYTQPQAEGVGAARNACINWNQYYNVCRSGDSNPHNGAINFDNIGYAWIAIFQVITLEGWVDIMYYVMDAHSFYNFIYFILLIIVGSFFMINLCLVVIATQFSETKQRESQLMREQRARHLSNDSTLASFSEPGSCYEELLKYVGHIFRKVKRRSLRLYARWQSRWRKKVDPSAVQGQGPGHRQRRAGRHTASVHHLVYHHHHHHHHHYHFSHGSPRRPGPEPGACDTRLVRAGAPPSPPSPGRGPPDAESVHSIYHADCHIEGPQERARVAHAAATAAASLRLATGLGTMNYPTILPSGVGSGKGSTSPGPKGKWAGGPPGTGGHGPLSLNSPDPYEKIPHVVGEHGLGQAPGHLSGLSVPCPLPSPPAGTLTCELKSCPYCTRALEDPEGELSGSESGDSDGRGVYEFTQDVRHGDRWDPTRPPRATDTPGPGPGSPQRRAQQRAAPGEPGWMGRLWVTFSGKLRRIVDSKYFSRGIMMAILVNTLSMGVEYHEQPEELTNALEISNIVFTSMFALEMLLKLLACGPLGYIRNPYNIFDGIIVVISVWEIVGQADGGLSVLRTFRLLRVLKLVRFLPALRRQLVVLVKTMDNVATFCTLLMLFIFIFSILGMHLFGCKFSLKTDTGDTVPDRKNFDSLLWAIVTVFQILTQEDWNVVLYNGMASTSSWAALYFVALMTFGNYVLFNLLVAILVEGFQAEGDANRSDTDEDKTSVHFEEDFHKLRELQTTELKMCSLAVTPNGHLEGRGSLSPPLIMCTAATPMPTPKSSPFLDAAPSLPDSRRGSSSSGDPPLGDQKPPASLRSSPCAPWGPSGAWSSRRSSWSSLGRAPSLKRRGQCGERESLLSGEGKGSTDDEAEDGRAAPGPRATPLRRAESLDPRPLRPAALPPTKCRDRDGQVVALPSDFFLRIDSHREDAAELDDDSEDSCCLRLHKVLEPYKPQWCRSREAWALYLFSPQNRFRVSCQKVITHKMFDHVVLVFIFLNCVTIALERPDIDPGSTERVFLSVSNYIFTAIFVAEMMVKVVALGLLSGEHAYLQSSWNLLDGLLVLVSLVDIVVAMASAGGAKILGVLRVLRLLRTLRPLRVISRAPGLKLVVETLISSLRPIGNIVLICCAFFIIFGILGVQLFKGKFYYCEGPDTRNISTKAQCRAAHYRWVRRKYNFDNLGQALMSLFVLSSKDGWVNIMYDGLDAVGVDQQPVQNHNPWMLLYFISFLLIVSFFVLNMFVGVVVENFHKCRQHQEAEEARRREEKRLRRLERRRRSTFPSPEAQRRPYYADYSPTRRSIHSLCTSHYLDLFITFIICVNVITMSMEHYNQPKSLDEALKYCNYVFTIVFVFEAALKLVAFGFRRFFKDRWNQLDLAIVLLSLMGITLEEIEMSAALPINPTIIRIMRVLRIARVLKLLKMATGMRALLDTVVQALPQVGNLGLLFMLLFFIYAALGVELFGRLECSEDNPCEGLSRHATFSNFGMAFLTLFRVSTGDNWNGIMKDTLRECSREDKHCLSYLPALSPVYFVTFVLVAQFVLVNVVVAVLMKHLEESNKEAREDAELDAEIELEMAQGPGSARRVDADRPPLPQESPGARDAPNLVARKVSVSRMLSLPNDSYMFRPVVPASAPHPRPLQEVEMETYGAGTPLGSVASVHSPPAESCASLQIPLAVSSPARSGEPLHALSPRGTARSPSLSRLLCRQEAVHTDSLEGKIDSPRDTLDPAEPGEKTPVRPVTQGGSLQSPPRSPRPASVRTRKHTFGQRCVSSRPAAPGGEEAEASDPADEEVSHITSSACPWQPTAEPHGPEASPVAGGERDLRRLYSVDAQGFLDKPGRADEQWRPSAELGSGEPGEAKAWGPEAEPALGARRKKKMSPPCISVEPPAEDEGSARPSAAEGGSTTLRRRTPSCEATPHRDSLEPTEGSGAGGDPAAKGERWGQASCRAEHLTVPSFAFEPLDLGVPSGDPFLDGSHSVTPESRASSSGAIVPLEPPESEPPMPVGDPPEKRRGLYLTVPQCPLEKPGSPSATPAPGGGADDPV

For `CC1CCCN(C(=O)c2ccn3c(CC4CCCCC4)c(C(C)(C)C)nc3c2)C1` (stereo not drawn) [Compound 14, (2-tert-Butyl-3-cyclohexylmethylimidazo[1,2-a]pyridin-7-yl)(3-methylpiperidin-1-yl)methanone], the IC50 in test [1] is less than 100 nM. For the same compound, in test [2], the “increase of the scratching behavior observed in the morphine-induced pruritus mice” value (shortened to “increase”) is recorded as “inhibited”.
Turning to `CC(C)c1nc2cc(C(=O)Nc3ccccc3)ccn2c1COC1CCCCC1` [Compound 21, 3-Cyclohexyloxymethyl-2-isopropyl-N-phenylimidazo[1,2-a]pyridine-7-carboxamide], the IC50 in test [1] (setting [3]) was less than 100 nM. Besides, in test [2], the “increase” value is “inhibited”.
For `O=C(N[C@H]1CC[C@H](O)CC1)c1cc(Cl)n2c(CC3CCC(F)(F)CC3)c(C(F)(F)F)nc2c1` [Compound 103, 5-Chloro-3-(4,4-difluorocyclohexylmethyl)-N-(trans-4-hydroxycyclohexyl)-2-trifluoromethylimidazo[1,2-a]pyridine-7-carboxamide], in test [1], the IC50 is less than 100 nM. In test [2], the “increase” value is listed as “inhibited”.
On the same counts, the results for `Cc1cc(C(=O)NC2CCOCC2)cc2nc(C(C)C)c(CC3CCC(F)(F)CC3)n12` [Compound 101, 3-(4,4-Difluorocyclohexylmethyl)-2-isopropyl-5-methyl-N-(tetrahydro-2H-pyran-4-yl)imidazo[1,2-a]pyridine-7-carboxamide] are less than 100 nM and “inhibited”.
For `CC(F)(F)c1nc2cc(C(=O)NC3CCOCC3)c(Cl)cn2c1CC1CCC(F)(F)CC1` [Compound 109, 6-Chloro-3-(4,4-difluorocyclohexylmethyl)-2-(1,1-difluoroethyl)-N-(tetrahydro-2H-pyran-4-yl)imidazo[1,2-a]pyridine-7-carboxamide] the same measures were less than 100 nM and “inhibited”.
For `O=C(NC1CC(F)(F)C1)c1ccn2c(CC3CCC(F)(F)CC3)c(C(F)(F)F)nc2c1` [Compound 51, N-(3,3-Difluorocyclobutyl)-3-(4,4-difluorocyclohexylmethyl)-2-trifluoromethylimidazo[1,2-a]pyridine-7-carboxamide] the same measures were less than 100 nM and “inhibited”.
Turning to `CC1(NC(=O)c2ccn3c(CC4CCC(F)(F)CC4)c(C(F)(F)F)nc3c2)CCOCC1` [Compound 52, 3-(4,4-Difluorocyclohexylmethyl)-N-(4-methyltetrahydro-2H-pyran-4-yl)-2-trifluoromethylimidazo[1,2-a]pyridine-7-carboxamide], the IC50 in test [1] is less than 100 nM. In addition, the “increase” value in test [2] is “inhibited”.
On to `CC(C)c1nc2cc(C(=O)Nc3ccncc3)ccn2c1S(=O)(=O)C1CCCCC1` [Compound 38, 3-Cyclohexylsulfonyl-2-isopropyl-N-(pyridin-4-yl)imidazo[1,2-a]pyridine-7-carboxamide], for which the concentration for half-maximal inhibition (IC50) in test [1] was less than 100 nM. In addition, the “increase” value in test [2] is listed as “inhibited”.
In the case of `Cc1cc(C(=O)NC2CCOCC2)cc2nc(C3(C)CC3)c(CC3CCC(F)(F)CC3)n12` [Compound 100, 3-(4,4-Difluorocyclohexylmethyl)-5-methyl-2-(1-methylcyclopropyl)-N-(tetrahydro-2H-pyran-4-yl)imidazo[1,2-a]pyridine-7-carboxamide], the IC50 in test [1] was less than 100 nM. Moreover, the “increase” value in test [2] is reported as “inhibited”.
For `Cc1cc(C(=O)NCC(C)(C)O)cc2nc(C(F)(F)F)c(CC3CCC(F)(F)CC3)n12` [Compound 78, 3-(4,4-Difluorocyclohexylmethyl)-N-(2-hydroxy-2-methylpropyl)-5-methyl-2-trifluoromethylimidazo[1,2-a]pyridine-7-carboxamide] the same measures were less than 100 nM and “inhibited”.
As to `CC(C)(C)c1nc2cc(C(=O)Nc3ccncc3)ccn2c1CC1CCC(F)(F)CC1` [Compound 34, 2-tert-Butyl-3-(4,4-difluorocyclohexylmethyl)-N-(pyridin-4-yl)imidazo[1,2-a]pyridine-7-carboxamide], in test [1], the IC50 was less than 100 nM. In test [2], the “increase” value is given as “inhibited”.
Take `CC(C)(C)c1nc2cc(C(=O)NC3CCC3)ccn2c1CC1CCCCC1` [Compound 15, 2-tert-Butyl-N-cyclobutyl-3-cyclohexylmethylimidazo[1,2-a]pyridine-7-carboxamide]: the IC50 in test [1] is less than 100 nM. Besides, the “increase” value in test [2] is given as “inhibited”.
On the same counts, the results for `O=C(NC1CCOCC1)c1cc(Cl)n2c(CC3CCC(F)(F)CC3)c(C(F)(F)F)nc2c1` [Compound 104, 5-Chloro-3-(4,4-difluorocyclohexylmethyl)-N-(tetrahydro-2H-pyran-4-yl)-2-trifluoromethylimidazo[1,2-a]pyridine-7-carboxamide] are less than 100 nM and “inhibited”.
As to `CC1(c2nc3cc(C(=O)NC4CCOCC4)c(Cl)cn3c2CC2CCC(F)(F)CC2)CC1` [Compound 114, 6-Chloro-3-(4,4-difluorocyclohexylmethyl)-2-(1-methylcyclopropyl)-N-(tetrahydro-2H-pyran-4-yl)imidazo[1,2-a]pyridine-7-carboxamide], the concentration for half-maximal inhibition (IC50) in test [1] (setting [3]) was less than 100 nM. Moreover, the “increase” value in test [2] was “inhibited”.
On the same counts, the results for `Cc1cc(C(=O)NC2CCCOC2)cc2nc(C(F)(F)F)c(CC3CCC(F)(F)CC3)n12` (stereo not drawn) [Compound 76, 3-(4,4-Difluorocyclohexylmethyl)-5-methyl-N-(tetrahydro-2H-pyran-3-yl)-2-trifluoromethylimidazo[1,2-a]pyridine-7-carboxamide] are less than 100 nM and “inhibited”.
For `Cc1cc(C(=O)NC2CCOCC2)cc2nc(C(C)(F)F)c(CC3CCC(F)(F)CC3)n12` [Compound 96, 3-(4,4-Difluorocyclohexylmethyl)-2-(1,1-difluoroethyl)-5-methyl-N-(tetrahydro-2H-pyran-4-yl)imidazo[1,2-a]pyridine-7-carboxamide], the IC50 in test [1] was less than 100 nM. Besides, the “increase” value in test [2] was “inhibited”.
For `O=C(NC1CCOCC1)c1cc2nc(C(F)(F)F)c(CC3CCC(F)(F)CC3)n2cc1Cl` [Compound 108, 6-Chloro-3-(4,4-difluorocyclohexylmethyl)-N-(tetrahydro-2H-pyran-4-yl)-2-trifluoromethylimidazo[1,2-a]pyridine-7-carboxamide], in test [1], the IC50 is less than 100 nM. The “increase” value in test [2] is given as “inhibited”.
For `O=C(Nc1ccn2c(CC3CCC(F)(F)CC3)c(C(F)(F)F)nc2c1)c1ccccc1` [Compound 126, N-{3-(4,4-Difluorocyclohexylmethyl)-2-trifluoromethylimidazo[1,2-a]pyridin-7-yl}benzamide] the same measures were less than 100 nM and “inhibited”.
For `Cc1cc(NC(=O)c2cc3nc(C(C)C)c(S(=O)(=O)N4CC(F)(F)C4)n3cc2Cl)on1` [Compound 148, 6-Chloro-3-(3,3-difluoroazetidin-1-ylsulfonyl)-2-isopropyl-N-(3-methylisooxazol-5-yl)imidazo[1,2-a]pyridine-7-carboxamide], in test [1] (setting [3]), the IC50 was less than 100 nM. For the same compound, the “increase” value in test [2] was “inhibited”.
In the case of `Cc1cc(C(=O)NCC2(C#N)CCOCC2)cc2nc(C(F)(F)F)c(CC3CCC(F)(F)CC3)n12` [Compound 84, N-{(4-Cyanotetrahydro-2H-pyran-4-yl)methyl}-3-(4,4-difluorocyclohexylmethyl)-5-methyl-2-trifluoromethylimidazo[1,2-a]pyridine-7-carboxamide], the half-inhibitory concentration (IC50) in test [1] was less than 100 nM. In test [2], the “increase” value is recorded as “inhibited”.
Turning to `CC(C)c1nc2cc(C(=O)Nc3ccccc3)ccn2c1S(=O)(=O)C1CCCCC1` [Compound 41, 3-Cyclohexylsulfonyl-2-isopropyl-N-phenylimidazo[1,2-a]pyridine-7-carboxamide], in test [1], the half-inhibitory concentration (IC50) is less than 100 nM. The “increase” value in test [2] is listed as “inhibited”.
On the same counts, the results for `O=C(NC1CCC1)c1ccn2c(CC3CCC(F)(F)CC3)c(C(F)(F)F)nc2c1` [Compound 50, N-Cyclobutyl-3-(4,4-difluorocyclohexylmethyl)-2-trifluoromethylimidazo[1,2-a]pyridine-7-carboxamide] are less than 100 nM and “inhibited”.
`CC(C)c1nc2cc(C(=O)Nc3ccncc3)ccn2c1COC1CCCCC1` [Compound 24, 3-Cyclohexyloxymethyl-2-isopropyl-N-(pyridin-4-yl)imidazo[1,2-a]pyridine-7-carboxamide]: the concentration for half-maximal inhibition (IC50) in test [1] (setting [3]) is less than 100 nM. The “increase” value in test [2] is given as “inhibited”.
As for `CC(C)c1nc2cc(C(=O)Nc3ccccc3)ccn2c1S(=O)(=O)N1CC(F)(F)C1` [Compound 133, 3-(3,3-Difluoroazetidin-1-ylsulfonyl)-2-isopropyl-N-phenylimidazo[1,2-a]pyridine-7-carboxamide], the IC50 in test [1] (setting [3]) was less than 100 nM. Also, the “increase” value in test [2] is “inhibited”.

(Values after US9000186B2, “Ring-fused heterocyclic derivative” (Kyowa Hakko Kirin Co., Ltd., priority 2011, dated 2015).)
